These results are taken from patent US11944622B2 (Annapurna Bio, Inc., priority 2018, dated 2024).

The target in the experiment is T1, APJ Receptor (Homo sapiens, UniProt P35414).
T1 sequence (P35414 1-380): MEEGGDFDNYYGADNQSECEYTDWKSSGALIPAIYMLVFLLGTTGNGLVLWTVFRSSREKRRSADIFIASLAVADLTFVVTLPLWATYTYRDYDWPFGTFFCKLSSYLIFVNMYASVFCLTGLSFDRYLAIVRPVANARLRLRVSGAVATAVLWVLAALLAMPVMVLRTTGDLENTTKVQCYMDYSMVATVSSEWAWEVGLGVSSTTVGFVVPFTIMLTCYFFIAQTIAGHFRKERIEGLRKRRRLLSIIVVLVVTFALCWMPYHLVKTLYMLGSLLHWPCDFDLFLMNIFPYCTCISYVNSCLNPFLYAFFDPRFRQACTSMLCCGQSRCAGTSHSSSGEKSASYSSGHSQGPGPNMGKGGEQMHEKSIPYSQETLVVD
The experiment is described as follows: APJ cAMP assay (DiscoverX enzyme fragment complementation; inhibition of forskolin-stimulated cAMP). Type of experiment: cell-based. As to conditions: CHO-K1 cell line stably expressing the APJ Receptor; EC80 forskolin; 30 minutes at 37° C.; read-out: Potency Range (APJ cAMP EC50). An excerpt: Activation of APJ receptor is known to inhibit forskolin-stimulated cyclic AMP (cAMP) production in cells in a pertussis toxin-sensitive manner which indicates primary coupling to the GαI subunit of the G protein heterotrimeric complex. In addition to signaling through G protein and inhibition of cAMP, APJ receptor activation also results in β-arrestin recruitment, receptor internalization and activation of extracellular-regulated kinases (ERKs).
In order to optimize functional activity directed toward Gi coupling we utilized a CHO-K 1 cell line developed by DiscoverX stably expressing the APJ Receptor. Cells expressing APJR receptor were plated in a 384-well microtiter plates and incubated overnight at 37° C. with 5% CO2 to allow the cells to attach and grow. Media was then aspirated from the cells and replaced with 15 uL 2:1 Hanks Balanced Salt Solution (HBSS)/10 mM Hepes:cAMP XS+Ab reagent. Five microliters (5 uL) of previously generated compound sample stocks at 4× final concentration in assay buffer containing 4× EC80 forskolin were then added to the cells and allowed to incubate at 37° C. for 30 minutes.
After incubation the assay signal was generated using a technology termed enzyme fragment complementation (EFC). In EFC the enzyme B-galactosidase is split into two complementary portions (EA and ED). The fragment ED is fused to cAMP and in the assay format competes with endogenous cAMP for binding to a cAMP specific antibody. Activated B-Gal is formed when exogenous EA fragment binds to free ED-cAMP (not bound to cAMP specific antibody). Activated enzyme levels are detected through conversion of B-gal chemiluminescent substrate which generates a detectable luminescence signal and read on standard microtiter plate.
The methodology for detection of cAMP using EFC requires incubation with 20 uL of cAMP XS+ED/CL lysis cocktail for one hour followed by incubation with 20 uL cAMP XS+EA reagent for three hours at room temperature. Microplates were read following signal generation with a PerkinElmer Envision instrument utilizing chemiluminescent signal detection.
Compound activity was analyzed using CBIS data analysis suite (ChemInnovation, CA). Percentage activity was calculated using the following formula: % Activity=100%×(1−(mean RLU of test sample−mean RLU of Max control)/(mean RLU of vehicle control−mean RLU of Max control))
(Changes in cAMP serve as a functional read-out for many G protein-coupled receptors.)

`CCOc1cccc(-c2nc3ncc(NS(=O)(=O)c4ncccn4)nc3n2-c2c(OC)cccc2OC)n1` [Example 41, N-(1-(2,6-dimethoxyphenyl)-2-(6-ethoxypyridin-2-yl)-1H-imidazo[4,5-b]pyrazin-6-yl)pyrimidine-2-sulfonamide]: the EC50 (usually the midpoint of the concentration-response curve) was in the range of 1 to 100 nM.

Consider `CCOc1cccc(-c2nc3nc(Cl)c(NS(=O)(=O)N4CCC(O)CC4)nc3n2-c2c(OC)cccc2OC)n1` [Example 116, N-(5-Chloro-1-(2,6-dimethoxyphenyl)-2-(6-ethoxypyridin-2-yl)-1H-imidazo[4,5-b]pyrazin-6-yl)-4-hydroxypiperidine-1-sulfonamide], for which the EC50 is 1 to 100 nM.

Consider `CCOc1cccc(-c2nc3nc(CC)c(NS(C)(=O)=O)nc3n2-c2c(OC)cccc2OC)n1` [Example 86, N-(1-(2,6-dimethoxyphenyl)-2-(6-ethoxypyridin-2-yl)-5-ethyl-1H-imidazo[4,5-b]pyrazin-6-yl)methanesulfonamide], for which the EC50 was 1 to 100 nM.

On to `CCOc1cccc(-c2nc3nc(CO)c(NS(C)(=O)=O)nc3n2-c2c(OC)cccc2OC)n1` [Example 140, N-(1-(2,6-Dimethoxyphenyl)-2-(6-ethoxypyridin-2-yl)-5-(hydroxymethyl)-1H-imidazo[4,5-b]pyrazin-6-yl)methanesulfonamide], for which the EC50 fell in the range of 1 to 100 nM.

On to `CCOc1cccc(-c2nc3ncc(NS(=O)(=O)[C@H]4CC[C@H](O)CC4)nc3n2-c2c(OC)cccc2OC)n1` [Example 39, trans-N-(1-(2,6-dimethoxyphenyl)-2-(6-ethoxypyridin-2-yl)-1H-imidazo[4,5-b]pyrazin-6-yl)-4-hydroxycyclohexane-1-sulfonamide], for which the EC50 was < 1 nM.

Turning to `CCOc1cccc(-c2nc3ncc(NS(C)(=O)=O)nc3n2C(C)C)n1` [Example 59, N-(2-(6-ethoxypyridin-2-yl)-1-isopropyl-II-1-imidazo[4,5-b]pyrazin-6-yl)methanesulfonamide], the EC50 lay in the range of 100 to 10000 nM.

For `CCOc1cccc(-c2nc3nc(NC(=O)Cc4ccccc4)cnc3n2-c2c(OC)cccc2OC)n1` [Example 17, N-(1-(2,6-dimethoxyphenyl)-2-(6-ethoxypyridin-2-yl)-1H-imidazo[4,5-b]pyrazin-5-yl)-2-phenylacetamide], the EC50 lay within 1 to 100 nM.

With `CCOc1cccc(-c2nc3ncc(NS(C)(=O)=O)nc3n2-c2c(OC)ccnc2OC)n1` (atropisomer, axis not shown) [Example 84, N-(1-(2,4-Dimethoxypyridin-3-yl)-2-(6-ethoxypyridin-2-yl)-1H-imidazo[4,5-b]pyrazin-6-yl)methanesulfonamide], the 50% effective concentration (EC50) was in the range of 1 to 100 nM.

Take `CCOc1cccc(-c2nc3ncc(NS(=O)(=O)C[C@@H]4CCN(C)C(=O)C4)nc3n2-c2c(OC)cccc2OC)n1` [Example 72, (R)—N-(1-(2,6-dimethoxyphenyl)-2-(6-ethoxypyridin-2-yl)-1H-imidazo[4,5-b]pyrazin-6-yl)-1-(1-methyl-2-oxopiperidin-4-yl)methanesulfonamide]: the EC50 is < 1 nM.

`COc1cccc(-c2nc3ncc(NS(=O)(=O)c4ncccn4)nc3n2-c2c(OC)cccc2OC)n1` [Example 53, N-(1-(2,6-dimethoxyphenyl)-2-(6-methoxypyridin-2-yl)-1H-imidazo[4,5-b]pyrazin-6-yl)pyrimidine-2-sulfonamide]: the EC50 lay in the range of 1 to 100 nM.

As to `CCOc1cccc(-c2nc3nc(NS(=O)(=O)CC4(O)CC4)cnc3n2-c2c(OC)cccc2OC)n1` [Example 62, N-(1-(2,6-dimethoxyphenyl)-2-(6-ethoxypyridin-2-yl)-1H-imidazo[4,5-b]pyrazin-5-yl)-1-(1-hydroxycyclopropyl)methanesulfonamide], the EC50 fell in the range of 1 to 100 nM.

`COc1cccc(-c2nc3ncc(NS(=O)(=O)c4ccccn4)nc3n2-c2c(OC)cccc2OC)n1` [Example 52, N-(1-(2,6-dimethoxyphenyl)-2-(6-methoxypyridin-2-yl)-1H-imidazo[4,5-b]pyrazin-6-yl)pyridine-2-sulfonamide]: the EC50 lay in the range of 1 to 100 nM.

For the compound `CCOc1cccc(-c2nc3ncc(NS(=O)(=O)N4CCCC4)nc3n2-c2c(OC)cccc2OC)n1` [Example 73, N-(1-(2,6-dimethoxyphenyl)-2-(6-ethoxypyridin-2-yl)-1H-imidazo[4,5-b]pyrazin-6-yl)pyrrolidine-1-sulfonamide], the EC50 was in the range of 1 to 100 nM.

`CCOc1cccc(-c2nc3ncc(NS(=O)(=O)CC(C)(C)O)nc3n2-c2c(OC)cccc2OC)n1` [Example 70]: the EC50 lay within 1 to 100 nM.

For the compound `CCOc1cccc(-c2nc3nc(N4CC(O)C4)c(NS(C)(=O)=O)nc3n2-c2c(OC)cccc2OC)n1` [Example 136, N-(1-(2,6-Dimethoxyphenyl)-2-(6-ethoxypyridin-2-yl)-5-(3-hydroxyazetidin-1-yl)-1H-imidazo[4,5-b]pyrazin-6-yl)methanesulfonamide], the EC50 fell in the range of 100 to 10000 nM.

Regarding `CCOc1cccc(-c2nc3nc(Cl)c(NS(=O)(=O)Cc4cccc(F)c4)nc3n2-c2c(OC)cccc2OC)n1` [Example 143, N-(5-Chloro-1-(2,6-dimethoxyphenyl)-2-(6-ethoxypyridin-2-yl)-1H-imidazo[4,5-b]pyrazin-6-yl)-1-(3-fluorophenyl)methanesulfonamide], the EC50 lay in the range of 1 to 100 nM.

Consider `CCOc1cccc(-c2nc3ncc(NS(C)(=O)=O)nc3n2-c2c(F)cccc2OC)n1` [Example 50], for which the concentration giving a half-maximal response (EC50) is 1 to 100 nM.

As for `CCOc1cccc(-c2nc3ncc(NS(=O)(=O)N(C)C4CC4)nc3n2-c2c(OC)cccc2OC)n1` [Example 77, N-(1-(2,6-dimethoxyphenyl)-2-(6-ethoxypyridin-2-yl)-1H-imidazo[4,5-b]pyrazin-6-yl)-N′-methyl-N′-cyclopropylsulfamide], the EC50 is < 1 nM.

For `CCOc1cccc(-c2nc3nc(N)c(NS(C)(=O)=O)nc3n2-c2c(OC)cccc2OC)n1` [Example 145, N-(5-Amino-1-(2,6-dimethoxyphenyl)-2-(6-ethoxypyridin-2-yl)-1H-imidazo[4,5-b]pyrazin-6-yl)methanesulfonamide], the EC50 fell in the range of 1 to 100 nM.

As to `CCOc1cccc(-c2nc3ncc(NS(=O)(=O)C[C@H]4C[C@](C)(O)C4)nc3n2-c2c(OC)cccc2OC)n1` [Example 81, trans-N-(1-(2,6-Dimethoxyphenyl)-2-(6-ethoxypyridin-2-yl)-1H-imidazo[4,5-b]pyrazin-6-yl)-1-((1r,3r)-3-hydroxy-3-methylcyclobutyl)methanesulfonamide], the EC50 was in the range of 1 to 100 nM.

Regarding `CCOc1cccc(-c2nc3ncc(NS(=O)(=O)C4CCOCC4)nc3n2-c2c(OC)cccc2OC)n1` [Example 36, N-(1-(2,6-dimethoxyphenyl)-2-(6-ethoxypyridin-2-yl)-1H-imidazo[4,5-b]pyrazin-6-yl)tetrahydro-2H-pyran-4-sulfonamide], the EC50 lay within 1 to 100 nM.

On to `CCOc1cccc(-c2nc3nc(Cl)c(NS(=O)(=O)c4cccnc4)nc3n2-c2c(OC)cccc2OC)n1` [Example 104, N-(5-Chloro-1-(2,6-dimethoxyphenyl)-2-(6-ethoxypyridin-2-yl)-1H-imidazo[4,5-b]pyrazin-6-yl)pyridine-3-sulfonamide], for which the EC50 lay in the range of 1 to 100 nM.

Regarding `CCOc1cccc(-c2nc3nc(Cl)c(NS(=O)(=O)Cc4ccc(F)cc4)nc3n2-c2c(OC)cccc2OC)n1` [Example 108, N-(5-Chloro-1-(2,6-dimethoxyphenyl)-2-(6-ethoxypyridin-2-yl)-1H-imidazo[4,5-b]pyrazin-6-yl)-1-(4-fluorophenyl)methanesulfonamide], the concentration for a half-maximal effect (EC50) is < 1 nM.

Regarding `COc1cccc(OC)c1-n1c(-c2ccc(C)o2)nc2nnc(NS(C)(=O)=O)cc21` [Example 130, N-(7-(2,6-Dimethoxyphenyl)-8-(5-methylfuran-2-yl)-7H-imidazo[4,5-c]pyridazinyl)methanesulfonamide], the EC50 is 100 to 10000 nM.

As to `CCOc1cccc(-c2nc3nnc(NS(C)(=O)=O)cc3n2-c2c(OC)cccc2OC)n1` [Example 21, N-(5-(2,6-dimethoxyphenyl)-6-(6-ethoxypyridin-2-yl)-5H-imidazo[4,5-c]pyridazin-3-yl)methanesulfonamide], the concentration giving a half-maximal response (EC50) lay within 1 to 100 nM.

Take `CCOc1cccc(-c2nc3nnc(NS(=O)(=O)C4CC4)cc3n2-c2c(OC)cccc2OC)n1` [Example 119, N-(7-(2,6-Dimethoxyphenyl)-8-(6-ethoxypyridin-2-yl)-7H-imidazo[4,5-c]pyridazinyl)cyclopropanesulfonamide]: the EC50 lay in the range of 1 to 100 nM.
